Values after ≈ are worked out from the molar mass of the structure shown. Active and inactive are the calls of the source. The calls are words filed in the database; no cut-off is given here.
What was measured:
Acinetobacter baumannii = test: Antibacterial activity against carbapenem-resistant Acinetobacter baumannii (12-666) assessed as inhibition of microbial growth up to 50 ug/ml incubated for 24 hrs by microdilution assay; format: functional
Vero = test: Cytotoxicity against African green monkey Vero cells assessed as reduction in cell viability incubated for 24 hrs by trypan blue staining based assay; details: Chlorocebus sabaeus
Escherichia coli [1] = test: Antibacterial activity against extended-spectrum beta-lactamase-positive Escherichia coli (14-2081) assessed as inhibition of microbial growth up to 50 ug/ml incubated for 24 hrs by microdilution assay; format: functional
Escherichia coli [2] = test: Antibacterial activity against oxacillin-resistant Escherichia coli OXA-48 assessed as inhibition of microbial growth up to 50 ug/ml incubated for 24 hrs by microdilution assay; format: functional
Pseudomonas aeruginosa = test: Antibacterial activity against carbapenem-resistant Pseudomonas aeruginosa (13-1391) assessed as inhibition of microbial growth up to 50 ug/ml incubated for 48 hrs by microdilution assay; format: functional
Klebsiella pneumoniae [3] = test: Antibacterial activity against extended-spectrum beta-lactamase-positive Klebsiella pneumoniae (14-2081) assessed as inhibition of microbial growth up to 50 ug/ml incubated for 24 hrs by microdilution assay; format: functional
Klebsiella pneumoniae [4] = test: Antibacterial activity against NDM-1 positive Klebsiella pneumoniae (14-3335) assessed as inhibition of microbial growth up to 50 ug/ml incubated for 24 hrs by microdilution assay; format: functional
[5] = system: Stenotrophomonas maltophilia; test: Antibacterial activity against trimethoprim-sulfamethoxazole-resistant Stenotrophomonas maltophilia assessed as inhibition of microbial growth up to 50 ug/ml incubated for 24 hrs by microdilution assay; format: functional
Providencia rettgeri = test: Antibacterial activity against NDM-1 positive Providencia rettgeri assessed as inhibition of microbial growth up to 50 ug/ml incubated for 24 hrs by microdilution assay; format: functional
[6] = Selectivity index, ratio of IC50 for cytotoxicity against African green monkey Vero cells to MIC for Mycobacterium tuberculosis H37Rv ATCC 27294; format: toxicity, cell-based; details: read-out: Selectivity Index
[7] = system: Mycobacterium tuberculosis; test: Antimycobacterial activity against Mycobacterium tuberculosis H37Rv ATCC 27294 assessed as inhibition of mycobacterial growth incubated for 2 weeks by MABA method; format: functional; details: for MIC: Mycobacterium tuberculosis, H37Rv ATCC 27294, 336 h
[8] = system: Mycobacterium tuberculosis; test: Antimycobacterial activity against Mycobacterium tuberculosis H37Rv ATCC 27294 assessed as inhibition of mycobacterial growth up to 50 ug/ml incubated for 2 weeks by MABA method; format: functional

Structure (SMILES): COc1cc(C[C@@H](C)[C@@H](C)Cc2ccc(OC(C)=O)c(OC)c2)ccc1OC(C)=O
- Activity (Acinetobacter baumannii): inactive
- IC50 (Vero): 95.1 µg/mL (≈ 230 µM)
- Activity (Escherichia coli [1]): inactive
- Activity (Escherichia coli [2]): inactive
- Activity (Pseudomonas aeruginosa): inactive
- Activity (Klebsiella pneumoniae [3]): inactive
- Activity (Klebsiella pneumoniae [4]): inactive
- Activity [5]: inactive
- Activity (Providencia rettgeri): inactive
- selectivity ratio [6]: 1.9
- -logMIC [7]: 4.23
- MIC [7]: 50 µg/mL (≈ 121 µM)

Structure (SMILES): COc1cc(C[C@@H](C)[C@@H](C)Cc2ccc(OC(=O)c3ccccc3[N+](=O)[O-])c(OC)c2)ccc1OC(=O)c1ccccc1[N+](=O)[O-]
- Activity (Acinetobacter baumannii): inactive
- Activity (Escherichia coli [1]): inactive
- Activity (Escherichia coli [2]): inactive
- Activity (Pseudomonas aeruginosa): inactive
- Activity (Klebsiella pneumoniae [3]): inactive
- Activity (Klebsiella pneumoniae [4]): inactive
- growth inhibition (GI) [8]: inactive
- Activity [5]: inactive
- Activity (Providencia rettgeri): inactive
- -logMIC [7]: 4.03

Structure (SMILES): CCCCCCCC/C=C\CCCCCCCC(=O)Oc1ccc(C[C@@H](C)[C@@H](C)Cc2ccc(OC(=O)CCCCCCC/C=C\CCCCCCCC)c(OC)c2)cc1OC
- Activity (Acinetobacter baumannii): inactive
- Activity (Escherichia coli [1]): inactive
- Activity (Escherichia coli [2]): inactive
- Activity (Pseudomonas aeruginosa): inactive
- Activity (Klebsiella pneumoniae [3]): inactive
- Activity (Klebsiella pneumoniae [4]): inactive
- growth inhibition (GI) [8]: inactive
- Activity [5]: inactive
- Activity (Providencia rettgeri): inactive
- -logMIC [7]: 4.88

Structure (SMILES): COc1cc(C[C@@H](C)[C@@H](C)Cc2ccc(OC(=O)c3ccccn3)c(OC)c2)ccc1OC(=O)c1ccccn1
- Activity (Acinetobacter baumannii): inactive
- Activity (Escherichia coli [1]): inactive
- Activity (Escherichia coli [2]): inactive
- Activity (Pseudomonas aeruginosa): inactive
- Activity (Klebsiella pneumoniae [3]): inactive
- Activity (Klebsiella pneumoniae [4]): inactive
- growth inhibition (GI) [8]: inactive
- Activity [5]: inactive
- Activity (Providencia rettgeri): inactive
- -logMIC [7]: 3.92

Structure (SMILES): COc1cc(C[C@@H](C)[C@@H](C)Cc2ccc(OCCN3CCCC3)c(OC)c2)ccc1OCCN1CCCC1
- Activity (Acinetobacter baumannii): inactive
- IC50 (Vero): > 487 µg/mL
- Activity (Escherichia coli [1]): inactive
- Activity (Escherichia coli [2]): inactive
- Activity (Pseudomonas aeruginosa): inactive
- Activity (Klebsiella pneumoniae [3]): inactive
- Activity (Klebsiella pneumoniae [4]): inactive
- Activity [5]: inactive
- Activity (Providencia rettgeri): inactive
- selectivity ratio [6]: > 19.5
- MIC [7]: 25 µg/mL (≈ 47.6 µM)

Structure (SMILES): CCCC(=O)Oc1ccc(C[C@@H](C)[C@@H](C)Cc2ccc(OC(=O)CCC)c(OC)c2)cc1OC
- Activity (Acinetobacter baumannii): inactive
- Activity (Escherichia coli [1]): inactive
- Activity (Escherichia coli [2]): inactive
- Activity (Pseudomonas aeruginosa): inactive
- Activity (Klebsiella pneumoniae [3]): inactive
- Activity (Klebsiella pneumoniae [4]): inactive
- growth inhibition (GI) [8]: inactive
- Activity [5]: inactive
- Activity (Providencia rettgeri): inactive
- -logMIC [7]: 4.04

Structure (SMILES): CCCCCCCCCCCCCCCC(=O)Oc1ccc(C[C@@H](C)[C@@H](C)Cc2ccc(OC(=O)CCCCCCCCCCCCCCC)c(OC)c2)cc1OC
- Activity (Acinetobacter baumannii): inactive
- Activity (Escherichia coli [1]): inactive
- Activity (Escherichia coli [2]): inactive
- Activity (Pseudomonas aeruginosa): inactive
- Activity (Klebsiella pneumoniae [3]): inactive
- Activity (Klebsiella pneumoniae [4]): inactive
- growth inhibition (GI) [8]: inactive
- Activity [5]: inactive
- Activity (Providencia rettgeri): inactive
- -logMIC [7]: 4.02

Structure (SMILES): COc1cc(C[C@@H](C)[C@@H](C)Cc2ccc(OC(=O)c3cccnc3)c(OC)c2)ccc1OC(=O)c1cccnc1
- Activity (Acinetobacter baumannii): inactive
- IC50 (Vero): 36.3 µg/mL (≈ 67.1 µM)
- Activity (Escherichia coli [1]): inactive
- Activity (Escherichia coli [2]): inactive
- Activity (Pseudomonas aeruginosa): inactive
- Activity (Klebsiella pneumoniae [3]): inactive
- Activity (Klebsiella pneumoniae [4]): inactive
- Activity [5]: inactive
- Activity (Providencia rettgeri): inactive
- selectivity ratio [6]: 2.9
- -logMIC [7]: 4.2
- MIC [7]: 12.5 µg/mL (≈ 23.1 µM)

Structure (SMILES): COc1cc(C[C@@H](C)[C@@H](C)Cc2ccc(OCCN(C)C)c(OC)c2)ccc1OCCN(C)C
- Activity (Acinetobacter baumannii): inactive
- IC50 (Vero): > 487 µg/mL
- Activity (Escherichia coli [1]): inactive
- Activity (Escherichia coli [2]): inactive
- Activity (Pseudomonas aeruginosa): inactive
- Activity (Klebsiella pneumoniae [3]): inactive
- Activity (Klebsiella pneumoniae [4]): inactive
- Activity [5]: inactive
- Activity (Providencia rettgeri): inactive
- selectivity ratio [6]: > 77.9
- -logMIC [7]: 4.32
- MIC [7]: 6.25 µg/mL (≈ 13.2 µM)

Structure (SMILES): CCCCCCCCCCCCCCCCCC(=O)Oc1ccc(C[C@@H](C)[C@@H](C)Cc2ccc(OC(=O)CCCCCCCCCCCCCCCCC)c(OC)c2)cc1OC
- Activity (Acinetobacter baumannii): inactive
- Activity (Escherichia coli [1]): inactive
- Activity (Escherichia coli [2]): inactive
- Activity (Pseudomonas aeruginosa): inactive
- Activity (Klebsiella pneumoniae [3]): inactive
- Activity (Klebsiella pneumoniae [4]): inactive
- growth inhibition (GI) [8]: inactive
- Activity [5]: inactive
- Activity (Providencia rettgeri): inactive
- -logMIC [7]: 3.85

Structure (SMILES): CCN(CC)CCOc1ccc(C[C@@H](C)[C@@H](C)Cc2ccc(OCCN(CC)CC)c(OC)c2)cc1OC
- Activity (Acinetobacter baumannii): inactive
- IC50 (Vero): 36.2 µg/mL (≈ 68.5 µM)
- Activity (Escherichia coli [1]): inactive
- Activity (Escherichia coli [2]): inactive
- Activity (Pseudomonas aeruginosa): inactive
- Activity (Klebsiella pneumoniae [3]): inactive
- Activity (Klebsiella pneumoniae [4]): inactive
- Activity [5]: inactive
- Activity (Providencia rettgeri): inactive
- selectivity ratio [6]: 1.45
- -logMIC [7]: 4.55
- MIC [7]: 25 µg/mL (≈ 47.3 µM)

Structure (SMILES): COc1cc(C[C@@H](C)[C@@H](C)Cc2ccc(OC(=O)c3cnccn3)c(OC)c2)ccc1OC(=O)c1cnccn1
- Activity (Acinetobacter baumannii): inactive
- Activity (Escherichia coli [1]): inactive
- Activity (Escherichia coli [2]): inactive
- Activity (Pseudomonas aeruginosa): inactive
- Activity (Klebsiella pneumoniae [3]): inactive
- Activity (Klebsiella pneumoniae [4]): inactive
- Activity [5]: inactive
- Activity (Providencia rettgeri): inactive
- -logMIC [7]: 4.23
- MIC [7]: 50 µg/mL (≈ 92.2 µM)

Structure (SMILES): COc1cc(C[C@@H](C)[C@@H](C)Cc2ccc(OC(=O)c3ccc(Br)cc3)c(OC)c2)ccc1O (racemic)
- Activity (Acinetobacter baumannii): inactive
- IC50 (Vero): 112 µg/mL (≈ 217 µM)
- Activity (Escherichia coli [1]): inactive
- Activity (Escherichia coli [2]): inactive
- Activity (Pseudomonas aeruginosa): inactive
- Activity (Klebsiella pneumoniae [3]): inactive
- Activity (Klebsiella pneumoniae [4]): inactive
- Activity [5]: inactive
- Activity (Providencia rettgeri): inactive
- selectivity ratio [6]: 8.93
- -logMIC [7]: 4.58
- MIC [7]: 12.5 µg/mL (≈ 24.3 µM)

Structure (SMILES): COc1cc(C[C@@H](C)[C@@H](C)Cc2ccc(OC(=O)c3ccccc3[N+](=O)[O-])c(OC)c2)ccc1O (racemic)
- Activity (Acinetobacter baumannii): inactive
- IC50 (Vero): 97.1 µg/mL (≈ 202 µM)
- Activity (Escherichia coli [1]): inactive
- Activity (Escherichia coli [2]): inactive
- Activity (Pseudomonas aeruginosa): inactive
- Activity (Klebsiella pneumoniae [3]): inactive
- Activity (Klebsiella pneumoniae [4]): inactive
- Activity [5]: inactive
- Activity (Providencia rettgeri): inactive
- selectivity ratio [6]: 7.76
- -logMIC [7]: 3.94
- MIC [7]: 12.5 µg/mL (≈ 26.1 µM)

Structure (SMILES): COc1cc(C[C@@H](C)[C@@H](C)Cc2ccc(OC(=O)c3ccccc3)c(OC)c2)ccc1O (racemic)
- Activity (Acinetobacter baumannii): inactive
- IC50 (Vero): 125 µg/mL (≈ 287 µM)
- Activity (Escherichia coli [1]): inactive
- Activity (Escherichia coli [2]): inactive
- Activity (Pseudomonas aeruginosa): inactive
- Activity (Klebsiella pneumoniae [3]): inactive
- Activity (Klebsiella pneumoniae [4]): inactive
- Activity [5]: inactive
- Activity (Providencia rettgeri): inactive
- selectivity ratio [6]: 9.97
- -logMIC [7]: 4.61
- MIC [7]: 12.5 µg/mL (≈ 28.8 µM)

Structure (SMILES): COc1cc(C[C@@H](C)[C@@H](C)Cc2ccc(OCCN3CCCC3)c(OC)c2)ccc1O (racemic)
- Activity (Acinetobacter baumannii): inactive
- IC50 (Vero): > 487 µg/mL
- Activity (Escherichia coli [1]): inactive
- Activity (Escherichia coli [2]): inactive
- Activity (Pseudomonas aeruginosa): inactive
- Activity (Klebsiella pneumoniae [3]): inactive
- Activity (Klebsiella pneumoniae [4]): inactive
- Activity [5]: inactive
- Activity (Providencia rettgeri): inactive
- selectivity ratio [6]: > 39
- -logMIC [7]: 5.25
- MIC [7]: 12.5 µg/mL (≈ 29.2 µM)

Structure (SMILES): COc1cc(C[C@@H](C)[C@@H](C)Cc2ccc(OC(=O)c3cccnc3)c(OC)c2)ccc1O (racemic)
- Activity (Acinetobacter baumannii): inactive
- IC50 (Vero): 71.4 µg/mL (≈ 164 µM)
- Activity (Escherichia coli [1]): inactive
- Activity (Escherichia coli [2]): inactive
- Activity (Pseudomonas aeruginosa): inactive
- Activity (Klebsiella pneumoniae [3]): inactive
- Activity (Klebsiella pneumoniae [4]): inactive
- Activity [5]: inactive
- Activity (Providencia rettgeri): inactive
- selectivity ratio [6]: 1.43
- -logMIC [7]: 4.05
- MIC [7]: 50 µg/mL (≈ 115 µM)

Structure (SMILES): COc1cc(C[C@@H](C)[C@@H](C)Cc2ccc(OCCN(C)C)c(OC)c2)ccc1O (racemic)
- Activity (Acinetobacter baumannii): inactive
- IC50 (Vero): 327 µg/mL (≈ 813 µM)
- Activity (Escherichia coli [1]): inactive
- Activity (Escherichia coli [2]): inactive
- Activity (Pseudomonas aeruginosa): inactive
- Activity (Klebsiella pneumoniae [3]): inactive
- Activity (Klebsiella pneumoniae [4]): inactive
- Activity [5]: inactive
- Activity (Providencia rettgeri): inactive
- selectivity ratio [6]: 26.1
- -logMIC [7]: 4.53
- MIC [7]: 12.5 µg/mL (≈ 31.1 µM)

Structure (SMILES): COc1cc(C[C@@H](C)[C@@H](C)Cc2ccc(OCCN3CCOCC3)c(OC)c2)ccc1O (racemic)
- Activity (Acinetobacter baumannii): inactive
- Activity (Escherichia coli [1]): inactive
- Activity (Escherichia coli [2]): inactive
- Activity (Pseudomonas aeruginosa): inactive
- Activity (Klebsiella pneumoniae [3]): inactive
- Activity (Klebsiella pneumoniae [4]): inactive
- growth inhibition (GI) [8]: inactive
- Activity [5]: inactive
- Activity (Providencia rettgeri): inactive

Structure (SMILES): CC[C@@H](CO)NCCN[C@@H](CC)CO [ETHAMBUTOL]
- IC50 (Vero): 391 µg/mL (≈ 1910 µM)
- selectivity ratio [6]: 125
- MIC [7]: 3.12 µg/mL (≈ 15.3 µM)

From ChEMBL document CHEMBL4043204, “meso-Dihydroguaiaretic acid derivatives with antibacterial and antimycobacterial activity” (Bioorg Med Chem, 2017)
